The test has as its system Clostridioides difficile clinical isolate growth, OD600, 24 h. The experiment in a line: C. difficile growth inhibition, confirmation, 4-point retest (AID 1224921).

Activity calls are given as the source filed them. The rule behind the calls is not given here.

For the compound `NC(=O)[C@@H]1[C@H]2C(=O)O[C@H](c3ccccc3)[C@H](c3ccccc3)N2[C@H](c2ccccc2OCCO)[C@@]12C(=O)Nc1ccccc12`, the AC50 was 32.8 µM.

Regarding `C[C@H](NC(=O)C[C@H]1CC[C@@H]2[C@H](COC[C@H](O)CN2C(=O)Nc2cc(Cl)cc(Cl)c2)O1)c1ccccc1`, the AC50 is 11.5 µM.

In the case of `COc1ccc(CN(C)C[C@@H]2OCCCC[C@H](C)Oc3ccc(NC(=O)Nc4ccc(C(F)(F)F)cc4)cc3C(=O)N([C@H](C)CO)C[C@@H]2C)cc1`, the AC50 is > 60 µM (inactive).

Take `O=C(C[C@@H]1CC[C@@H]2[C@H](COC[C@@H](O)CN2C(=O)Nc2ccc(Cl)c(Cl)c2)O1)NCc1ccncc1`: the AC50 is 4.07 µM.

As for `O=C(C[C@@H]1CC[C@H]2[C@@H](COC[C@H](O)CN2S(=O)(=O)c2ccc(Cl)cc2)O1)NCc1ccc(Cl)c(Cl)c1`, the AC50 was 30.9 µM.

Regarding `CO[C@@H](CN(C)Cc1cc(F)ccc1F)[C@@H](C)CN(C(=O)Nc1ccc(C(F)(F)F)cc1)[C@@H](C)CO`, the AC50 is 13.1 µM.

For the compound `C[C@@H]1CN([C@@H](C)CO)C(=O)c2c(c3ccccc3n2C)-c2ccccc2CO[C@@H]1CN(C)Cc1ccncc1`, the AC50 is > 60 µM (inactive).

Take `CCC(=O)Nc1ccc2c(c1)C(=O)N(C)C[C@@H](OC)[C@H](C)CN(C(=O)NC(C)C)[C@@H](C)CO2`: the AC50 is > 60 µM (inactive).

For the compound `C[C@H](CO)N1C[C@H](C)[C@H](CN(C)C(=O)Nc2ccccc2)Oc2c(NC(=O)Nc3ccc(C(F)(F)F)cc3)cccc2C1=O`, the AC50 was 26.5 µM.

Regarding `O=C(C[C@@H]1CC[C@H]2[C@@H](COC[C@@H](O)CN2C(=O)Nc2ccc(Cl)c(Cl)c2)O1)NC1CCC1`, the AC50 is 3.86 µM.

`CCC(=O)N[C@@H]1CC[C@H](CCNC(=O)Nc2ccc(C(F)(F)F)cc2)O[C@@H]1CO`: the AC50 was 4.29 µM.

As to `COc1ccc(NC(=O)Nc2cccc3c2O[C@H](CN(C)Cc2ccc(C(F)(F)F)cc2)[C@H](C)CN([C@@H](C)CO)C3=O)cc1`, the AC50 is 15.9 µM.

`C[C@@H]1CN([C@H](C)CO)C(=O)c2cc(NS(=O)(=O)c3ccc(Cl)cc3)ccc2O[C@@H](C)CCCCO[C@H]1CN(C)Cc1ccc(C(F)(F)F)cc1`: the AC50 is > 60 µM (inactive).

On to `C[C@@H]1CN([C@H](C)CO)C(=O)c2cc(NC(=O)Nc3cccc4ccccc34)ccc2O[C@@H](C)CCCCO[C@@H]1CN(C)CC1CCCCC1`, for which the AC50 is > 60 µM (inactive).

In the case of `Cc1ccc(S(=O)(=O)N2C[C@@H](O)COC[C@H]3O[C@H](CC(=O)NCc4ccc(Cl)c(Cl)c4)CC[C@@H]32)cc1`, the AC50 is > 60 µM (inactive).

In the case of `O=C(Nc1ccc(-c2ccccc2)cc1)[C@H]1[C@H](CO)[C@H]2Cn3c(cccc3=O)[C@H]2N1CC1CCCCC1`, the AC50 was > 60 µM (inactive).

For `O=C(C[C@H]1CC[C@H]2[C@@H](COC[C@@H](O)CN2C(=O)Nc2ccc(C(F)(F)F)cc2)O1)NCC1CC1`, the AC50 is 1.18 µM.

As for `C[C@H]1CN([C@@H](C)CO)C(=O)c2cccc(NC(=O)c3ccncc3)c2O[C@@H]1CN(C)Cc1ccc(-c2ccccc2)cc1`, the concentration at half-maximal activity (AC50) was 1.74 µM.

As for `C[C@H]1CN([C@@H](C)CO)C(=O)c2cc(C#CCc3ccccc3)cnc2O[C@@H]1CN(C)CC1CCCC1`, the AC50 is 29.7 µM.

As for `CO[C@@H](CN(C)Cc1cc(F)ccc1F)[C@@H](C)CN(C(=O)Nc1ccc(C(F)(F)F)cc1)[C@H](C)CO`, the AC50 was 6.79 µM.

As for `COc1ccccc1C#Cc1ccc([C@H]2[C@@H](CO)N(C(=O)C3CCCCC3)[C@H]2C#N)cc1`, the concentration at half-maximal activity (AC50) was 34.2 µM.

Take `C[C@H](CO)N1C[C@H](C)[C@@H](CN(C)CC2CCCC2)Oc2ncc(C#CCc3ccccc3)cc2C1=O`: the AC50 is > 60 µM (inactive).

On to `CO[C@H]1CN(C)C(=O)c2cc(NC(C)=O)ccc2OC[C@@H](C)N(CCc2ccccc2)C[C@H]1C`, for which the AC50 is > 60 µM (inactive).

Consider `CO[C@H]1CN(C)C(=O)c2cc(NC(=O)Nc3ccc(Cl)c(Cl)c3)ccc2OC[C@@H](C)NC[C@@H]1C`, for which the AC50 is 4.39 µM.

As to `C[C@H](CO)N1C[C@H](C)[C@@H](CN(C)Cc2ccc(-c3ccccc3)cc2)Oc2c(NC(=O)c3ccncc3)cccc2C1=O`, the AC50 was 6.59 µM.

As for `O=C(C[C@H]1CC[C@H]2[C@@H](COC[C@@H](O)CN2C(=O)Nc2ccc(C(F)(F)F)cc2)O1)NCCc1ccncc1`, the AC50 was 3.88 µM.

Turning to `C[C@@H]1CCCCO[C@H](CN(C)CC2CCCCC2)[C@H](C)CN([C@H](C)CO)C(=O)c2cc(NC(=O)Nc3ccc(C(F)(F)F)cc3)ccc2O1`, the AC50 was 13.6 µM.

For the compound `CO[C@H]1CN(C)C(=O)c2ccc(NC(=O)Nc3cc(Cl)cc(Cl)c3)cc2OC[C@@H](C)NC[C@H]1C`, the AC50 is 15.1 µM.

`C[C@H](CO)N1C[C@H](C)[C@H](CN(C)C(=O)Nc2ccc(F)cc2)Oc2c(NC(=O)Nc3ccc(C(F)(F)F)cc3)cccc2C1=O`: the AC50 was 33.7 µM.

For the compound `C[C@H](NC(=O)C[C@@H]1CC[C@@H]2[C@H](COC[C@H](O)CN2C(=O)Nc2cccc(Cl)c2)O1)c1ccccc1`, the AC50 was 14.4 µM.

Consider `C[C@@H]1CCCCO[C@@H](CN(C)CC2CCCCC2)[C@H](C)CN([C@@H](C)CO)C(=O)c2cc(NC(=O)Nc3ccc(C(F)(F)F)cc3)ccc2O1`, for which the AC50 was 12.6 µM.

On to `C[C@@H]1CN([C@@H](C)CO)C(=O)c2cccc(NC(=O)Nc3ccc(F)cc3)c2O[C@@H]1CN(C)Cc1ccc(C(F)(F)F)cc1`, for which the AC50 was 2.37 µM.

Turning to `C[C@@H]1CN([C@H](C)CO)S(=O)(=O)c2ccc(C#Cc3cccc(F)c3)cc2O[C@H]1CN(C)C`, the AC50 was > 60 µM (inactive).

Take `C[C@@H]1CN([C@@H](C)CO)C(=O)c2cccc(NC(=O)Nc3ccc(C(F)(F)F)cc3)c2O[C@@H]1CN(C)Cc1ccccc1`: the AC50 was 3.65 µM.

With `O=C(NCC[C@H]1CC[C@H](NC(=O)c2cccnc2)[C@@H](CO)O1)Nc1ccc(C(F)(F)F)cc1`, the AC50 was 1.79 µM.

In the case of `O=C(C[C@H]1CC[C@@H]2[C@H](COC[C@H](O)CN2C(=O)Nc2ccc(C(F)(F)F)cc2)O1)NCC1CCCCC1`, the AC50 is 1.21 µM.

On to `O=C(C[C@H]1CC[C@H]2[C@@H](COC[C@@H](O)CN2C(=O)Nc2ccc(Cl)c(Cl)c2)O1)NC1CCC1`, for which the AC50 was 4.29 µM.

`C[C@@H]1CCCCO[C@@H](CN(C)C)[C@H](C)CN([C@H](C)CO)C(=O)c2cc(NC(=O)Nc3ccc(C(F)(F)F)cc3)ccc2O1`: the AC50 is 17.5 µM.

As to `O=C(C[C@H]1CC[C@@H]2[C@H](COC[C@H](O)CN2C(=O)Nc2ccc(C(F)(F)F)cc2)O1)NCC1CC1`, the AC50 is 3.63 µM.

On to `C[C@@H]1CN([C@@H](C)CO)C(=O)Cc2cc(N(C)C)ccc2O[C@H]1CN(C)Cc1ccc(Oc2ccccc2)cc1`, for which the AC50 was 19.1 µM.

Turning to `C[C@@H]1CN([C@@H](C)CO)C(=O)c2cc(NC(=O)Nc3ccc(C(F)(F)F)cc3)ccc2O[C@@H](C)CCCCO[C@H]1CN(C)CC1CCCCC1`, the AC50 was 4.9 µM.

In the case of `O=C(C[C@H]1CC[C@H]2[C@@H](COC[C@H](O)CN2C(=O)Nc2cc(Cl)cc(Cl)c2)O1)N1CCCCC1`, the AC50 was 3.29 µM.

Consider `CCNC(=O)C[C@@H]1CC[C@H]2[C@@H](COC[C@H](O)CN2C(=O)Nc2ccc(Cl)c(Cl)c2)O1`, for which the AC50 is 7.98 µM.

As to `N#C[C@@H]1[C@H](c2ccc(C#Cc3ccc(F)cc3)cc2)[C@@H](CO)N1C(=O)C1CCCC1`, the AC50 was > 70 µM (inactive).

Turning to `CCNC(=O)C[C@@H]1CC[C@@H]2[C@H](COC[C@H](O)CN2C(=O)Nc2ccc(Cl)c(Cl)c2)O1`, the AC50 was 4.07 µM.

As to `CO[C@@H](CN(C)S(=O)(=O)c1cn(C)cn1)[C@@H](C)CN(C(=O)Nc1ccc(C(F)(F)F)cc1)[C@H](C)CO`, the AC50 is 16.5 µM.

On to `CCCN(C)C[C@@H]1OCCCC[C@H](C)Oc2ccc(NC(=O)Nc3ccc(C(F)(F)F)cc3)cc2C(=O)N([C@@H](C)CO)C[C@@H]1C`, for which the AC50 was 12.5 µM.

For the compound `CO[C@H]1CN(C)C(=O)c2cc(NC(=O)Nc3ccc(Cl)c(Cl)c3)ccc2OC[C@H](C)NC[C@H]1C`, the AC50 was 9.51 µM.

Take `C[C@@H]1CN([C@H](C)CO)S(=O)(=O)c2ccc(C#Cc3ccccc3)cc2O[C@H]1CN(C)C`: the AC50 is 28.4 µM.

For the compound `CO[C@H]1CN(C)C(=O)c2cc(NC(C)=O)ccc2OC[C@@H](C)N(Cc2nccs2)C[C@@H]1C`, the AC50 was > 60 µM (inactive).

On to `CO[C@H](CN(C)C(=O)C1CC1)[C@H](C)CN(C(=O)Nc1ccc(C(F)(F)F)cc1)[C@@H](C)CO`, for which the AC50 is 14.7 µM.

As for `O=C(C[C@@H]1CC[C@@H]2[C@H](COC[C@H](O)CN2C(=O)Nc2cc(Cl)cc(Cl)c2)O1)N1CCOCC1`, the concentration at half-maximal activity (AC50) was 6.6 µM.

Take `COc1ccc(CN(C)C[C@H]2OCCCC[C@@H](C)Oc3ccc(NC(=O)Nc4cccc5ccccc45)cc3C(=O)N([C@@H](C)CO)C[C@@H]2C)cc1`: the AC50 was 27.4 µM.

Turning to `CCNC(=O)C[C@H]1CC[C@@H]2[C@H](COC[C@H](O)CN2C(=O)Nc2ccc(Cl)c(Cl)c2)O1`, the AC50 is 3.02 µM.

Regarding `C[C@@H]1CN([C@H](C)CO)S(=O)(=O)c2ccc(/C=C/c3ccccc3)cc2O[C@H]1CN(C)Cc1ccc(C(=O)O)cc1`, the AC50 is below 0.5 µM.

Turning to `C[C@@H]1CN([C@@H](C)CO)C(=O)Cc2cc(NS(C)(=O)=O)ccc2O[C@H]1CN(C)Cc1ccc(Cl)c(Cl)c1`, the AC50 was 8.49 µM.

For the compound `C[C@H]1CCCCO[C@@H](CN(C)CC2CCCCC2)[C@@H](C)CN([C@@H](C)CO)C(=O)c2cc(NC(=O)Nc3ccc(C(F)(F)F)cc3)ccc2O1`, the concentration at half-maximal activity (AC50) is 17.3 µM.

For `Cc1ccc(S(=O)(=O)Nc2ccc3c(c2)C(=O)N([C@@H](C)CO)C[C@H](C)[C@@H](CN(C)Cc2ccc4c(c2)OCO4)OCCCC[C@@H](C)O3)cc1`, the AC50 is 7.88 µM.

As for `O=C(NCC[C@H]1CC[C@@H](NC(=O)C2CC2)[C@@H](CO)O1)Nc1ccc(C(F)(F)F)cc1`, the AC50 was 1.69 µM.

On to `O=C(C[C@H]1CC[C@@H]2[C@H](COC[C@H](O)CN2C(=O)Nc2ccc(Cl)c(Cl)c2)O1)NCc1ccc(Cl)cc1`, for which the AC50 is 1.88 µM.

`CO[C@@H]1CN(C)C(=O)c2cc(NC(=O)Nc3cc(Cl)cc(Cl)c3)ccc2OC[C@H](C)NC[C@@H]1C`: the AC50 is 9.05 µM.

As for `O=C(C[C@@H]1CC[C@@H]2[C@H](COC[C@@H](O)CN2S(=O)(=O)c2ccccc2)O1)NCC1CCCCC1`, the AC50 is 15.2 µM.

`CNC[C@@H]1OCCCC[C@@H](C)Oc2ccc(NC(=O)Nc3ccc(C(F)(F)F)cc3)cc2C(=O)N([C@@H](C)CO)C[C@@H]1C`: the half-maximal activity concentration (AC50) is 17.5 µM.

Regarding `CO[C@@H]1CN(C)C(=O)c2cc(NC(=O)Nc3ccc(Cl)c(Cl)c3)ccc2OC[C@H](C)NC[C@@H]1C`, the AC50 is 8.13 µM.
